Where “and” joins values, the source holds several entries; their conditions need not be identical. Equal values may be shown once. Read-outs that look alike come from different tables or passages of the source.
Assays:
[1] = In vitro release (dialysis bag method) and release kinetics modelling; type: physicochemical
Description: The release medium was phosphate-buffered saline, prepared according to pharmacopeial standards and consisting of 0.02% KCl (w/v), 0.02% KH2PO4 (w/v), 0.116% Na2HPO4 (w/v), and 0.8% NaCl (w/v) (adjusted with 10 mM NaOH, pH 7.4) ([Anvisa, 2019]).
The dialysis bags containing CUR-loaded NCs were immersed in the phosphate-buffered saline medium at 37 °C with horizontal shaking at 50 rpm.
At predetermined intervals, 2 mL of the medium was withdrawn for analysis with a UV spectrophotometer (UV-1800, Shimadzu, Japan) at 427 nm. The experiments were conducted in triplicate (n = 3), with results reported as the percentage of drug released over time.
Evaluated models included zero-order (Equation 1), monoexponential (Equation 2), bi-exponential (Equation 3), Weibull (Equation 4), and Higuchi (Equation 5). F=k0·t (1) F=100 ·1−e^−k1·t (2) F=100·1−Ae^−αt+Be^−βt (3) F=100·1−e^−t^β/α (4) F=kH·t^0.5 (5) where F is the percentage of drug released at time t (h), k 0 is the zero-order release constant (h^−1), k 1 is the first-order release constant (h^−1), A and B represent the fractions of drug distributed in different phases, and α and β (h^−1) are the specific kinetic rate constants. k H represents the Higuchi release constant.
The drug release mechanism was further evaluated by fitting the data to the Peppas-Sahlin (Equation 6) and Korsmeyer-Peppas (Equation 7) models: F=k1· t^0.5+k2 ·t (6) F=kKP·t^n (7) where k 1 is the constant (h^−1) denoting the relative contribution of t ^0.5 dependent drug diffusion to drug release, k 2 is the constant (h^−1) denoting the relative contribution of t-dependent polymer relaxation to drug release, k KP is the kinetic constant of the Korsmeyer-Peppas model, and n is the diffusion exponent that indicates the drug transport mechanism.
The release profiles were plotted and fitted using different in vitro release models. The results of the in vitro drug release study were evaluated based on dissolution efficiency and independent/dependent kinetic models. Model selection was performed considering the highest correlation coefficient (R ^2) and the Akaike Information Criterion (AIC) ([Vieira et al., 2016]).

[2] = Stability of CUR in spiked S1 flies (whole-body fly homogenate supernatant); type: in vitro ADME, D. melanogaster
Description: (§1) This homogenate was prepared by weighing 0.02 g of whole flies, followed by adding 600 µL of acetonitrile and homogenizing with an Ultra-Turrax (T10, GmbH, Germany) for 30 s at 28,800 rpm. The mixture was centrifuged at 14,000 rpm for 10 min at 4 °C to obtain the whole-body fly homogenate supernatant (S1). Subsequently, 90 µL of S1 was spiked with 10 µL of each calibration standard and 10 µL of the IS. Deproteinization was achieved by adding 1,000 µL of acetonitrile and 10 µL of 0.2% HCl. The mixtures were vortexed for 5 min, then centrifuged at 14,000 rpm for 10 min at 4 °C. The supernatant was separated, evaporated to dryness using a centrifugal vacuum concentrator at 45 °C for 60 min, and the residue reconstituted in 100 µL of mobile phase.
(§2) Stability tests were performed under identical conditions for both matrices: room temperature for 6 h (22 °C ± 3 °C), in the autosampler for up to 24 h (22 °C ± 3 °C), after 60 days in a freezer (−80 °C ± 2 °C), and across three freeze-thaw cycles, with each thawing period at room temperature for approximately 2 h and refreezing for 12 h at −20 °C. For each species, three replicates at concentrations of 3 and 150 ng/mL were tested.
(§3) Samples were deemed stable if the results fell within the acceptable limits of accuracy (±15% of nominal concentration) and precision (±15% CV). For the LLOQ, the CV was not to exceed 20% ([FDA, 2018]; [ICH, 2019]).

[3] = Stability of CUR in spiked rat plasma; type: in vitro ADME; conditions: Plasma rats
Description: The rat plasma extraction was processed similarly to that of the flies, with 10 µL of each calibration standard sample mixed with 90 µL of blank rat plasma and 10 µL of the IS, followed by deproteinization with acetonitrile.
as §2, §3

[4] = Fly whole-body CUR quantification after 10-day dietary exposure, healthy flies; type: in vivo, D. melanogaster; conditions: both sexes, Drosophila melanogaster, whole-body homogenate, oral, 110 ng/mL in food medium for 10 days
Description: as §1
Adult healthy flies (1–3 days old) of both sexes were used, with each group consisting of 25 males and 25 females (n = 6 replicates/50 flies each). […] The medium was replaced every 3 days. The dosing and study design were based on our previous study ([Fernandes et al., 2023]).

[5] = Fly whole-body CUR quantification, lipopolysaccharide-induced inflammation; type: in vivo, D. melanogaster; conditions: LPS 250 μg/mL in food medium + 37 ng/mL for 10 days
Description: as §1

[6] = Pharmacokinetic study in rodents (non-compartmental analysis); type: in vivo, Wistar rats
Description: As described in our previous study, the NC-CUR was prepared via the interfacial deposition method of preformed polymers, ensuring the same final concentration ([Santos et al., 2021]). […] For the oral administration groups, blood sampling began 0.25 h post-gavage (Figure 1B). […] Pharmacokinetic parameters were calculated using non-compartmental analysis with PKanalix 2023R1 software (Lixoft, France). Plasma concentration-time profiles for each experimental group were analyzed individually.

[7] = ref Nakama et al., 2020; cited from earlier work
[8] = set-up: method as in Yang et al., 2007; conditions: rats; 500 mg kg; ref Yang et al., 2007; cited from earlier work
[9] = set-up: method as in Wang et al., 2018; conditions: mice; intravenous administration of 20 mg kg; ref Wang et al., 2018; cited from earlier work
healthy flies = test system: healthy flies; set-up: method as in Fernandes et al., 2023; conditions: ref Fernandes et al., 2023; cited from earlier work
[10] = nominal 3 ng/mL, 6 h (bench-top)
[11] = nominal 3 ng/mL, 24 h 6 h (bench-top)
[12] = nominal 3 ng/mL, Freeze-thaw cycles
[13] = nominal 150 ng/mL, 6 h (bench-top)
[14] = nominal 150 ng/mL, 24 h (autosampler)
[15] = nominal 150 ng/mL, 60 d (−80 °C)
[16] = nominal 150 ng/mL, Freeze-thaw cycles
[17] = male, Wistar, rat, plasma, iv, 2 mg/kg, Intravenous 2 mg/kg
[18] = male, Wistar, rat, plasma, Intravenous 2 mg/kg
[19] = male, Wistar, rat, plasma, Oral 6 mg/kg

drug released ([1]; at 6 h): 56.09%
drug released ([1]; at 12 h): 97.69% and ~100%
Accuracy [2, 10]: 84.45%
Mean ± SD [2, 10]: 2.74 ± 0.39 ng/mL
Accuracy [2, 11]: 114.19%
Mean ± SD [2, 11]: 3.23 ± 0.24 ng/mL
Accuracy ([2]; nominal 3 ng/mL, 60 d (−80 °C)): 103.03%
Mean ± SD ([2]; nominal 3 ng/mL, 60 d (−80 °C)): 3.09 ± 0.26 ng/mL
Accuracy [2, 12]: 106.81%
Mean ± SD [2, 12]: 3.20 ± 0.27 ng/mL
Accuracy [2, 13]: 94.59%
Mean ± SD [2, 13]: 144.26 ± 4.68 ng/mL
Accuracy [2, 14]: 89.72%
Mean ± SD [2, 14]: 142.32 ± 4.62 ng/mL
Accuracy [2, 15]: 98.39%
Mean ± SD [2, 15]: 147.59 ± 16.88 ng/mL
Accuracy [2, 16]: 95.99%
Mean ± SD [2, 16]: 143.99 ± 13.47 ng/mL
Mean ± SD [3, 10]: 2.58 ± 0.04 ng/mL
Accuracy [3, 11]: 98.08%
Mean ± SD [3, 11]: 2.94 ± 0.19 ng/mL
Accuracy ([3]; nominal 3 ng/mL, 60 d (−80 °C)): 86.28%
Mean ± SD ([3]; nominal 3 ng/mL, 60 d (−80 °C)): 2.58 ± 0.05 ng/mL
Accuracy [3, 12]: 86.23%
Mean ± SD [3, 12]: 2.58 ± 0.04 ng/mL
Accuracy [3, 13]: 99.1%
Mean ± SD [3, 13]: 148.64 ± 1.35 ng/mL
Accuracy [3, 14]: 99.84%
Mean ± SD [3, 14]: 149.75 ± 0.92 ng/mL
Accuracy [3, 15]: 98.84%
Mean ± SD [3, 15]: 148.26 ± 0.17 ng/mL
Accuracy [3, 16]: 99.1%
Mean ± SD [3, 16]: 148.64 ± 1.35 ng/mL
concentration at 10 days [4]: ~75 ng/mL
CUR concentration in whole-body homogenates [5]: markedly reduced CUR levels
kel ([6]; Intravenous 2 mg/kg): 0.75 h−¹
CL ([6]; Intravenous 2 mg/kg, 2 mg/kg): 7.71 L/h
t1/2 ([6]; Intravenous 2 mg/kg, 2 mg/kg): 1.17 h
AUC0-∞ ([6]; Intravenous 2 mg/kg, male Wistar rats, n = 9, 2 mg/kg): 100.41 ng·h/mL
kel ([6]; Oral 6 mg/kg): 0.54 h−¹
clearance [6, 17]: 125 mL/min
half-life [6, 17]: 1.77 ± 0.45 h
AUC(0-inf) ([6]; male, Wistar, rat, plasma, iv, 2 mg/kg, Intravenous 2 mg/kg, male Wistar rats, n = 9): 100 ± 24.4 ng·h/mL
half-life ([6]; male, Wistar, rat, plasma, po, 6 mg/kg, Oral 6 mg/kg): 1.7 h
AUC(0-inf) ([6]; male, Wistar, rat, plasma, po, 6 mg/kg, Oral 6 mg/kg, male Wistar rats, n = 12): 25.6 ng·h/mL
Cmax [6, 18]: 231 ng/mL
MRT [6, 18]: 0.79 h
Vd [6, 18]: 12.8 L
Cmax [6, 19]: 8.04 ng/mL
MRT [6, 19]: 3 h
Tmax [6, 19]: 1.31 h
bioavailability ([6]; male, Wistar, rat, plasma, Oral 6 mg/kg vs intravenous 2 mg/kg, read-out: Fabs (absolute bioavailability)): 8.48%
SMILES: COc1cc(/C=C/C(=O)CC(=O)/C=C/c2ccc(O)c(OC)c2)ccc1O [CUR, Curcumin]
B ([1]; Biexponencial model): 11.93 ± 2.50
α ([1]; Biexponencial model): 0.15 ± 0.02 h⁻¹
β ([1]; Biexponencial model): 0.17 ± 0.01 h⁻¹
A ([1]; Biexponencial model (chosen model), PBS pH 7.4): 78.99 ± 2.50
kH ([1]; Higuchi model): 18.05 ± 0.07 h⁻¹
k ([1]; Monoexponencial model, PBS pH 7.4): 0.14 ± 0.00 h⁻¹
α ([1]; Weibull model): 4.73 ± 0.06 h⁻¹
β ([1]; Weibull model): 0.82 ± 0.01 h⁻¹
k 0 ([1]; Zero order model, PBS pH 7.4): 2.57 ± 0.01 h⁻¹
Log P [7]: ~3.2
oral bioavailability (administered dose absorbed) [8]: about 1%
half-life [9]: approximately 32.4 min
concentrations producing increased survival and enhanced antioxidant defenses (healthy flies): above 300 μM
